Tests used:
Assay in all cases: XTT cytotoxicity, CDKi + DNR combination (Chou-Talalay)
[1] = test system: HCT-8 cells; details: HCT-8, 72 h
Protocol: (§1) 1×10^4 MDCKII-ABCB1, 1×10^4 MDCKII parent, 2×10^4 HCT-8, or 2×10^4 HepG2 cells were grown in 96-well culture plates and incubated for 24 h. Individual CDKi diluted with growth medium were added to the exponentially growing cells and the resulting mixtures were incubated for 72 h at 37°C, 5% CO2. Cytotoxicity was then assessed using the XTT assay as follows: cells were incubated with 0.167 mg/mL XTT and 4 µM PMS in Opti-MEM for 2 h. The absorbance of the soluble formazan released was measured at 470 nm on a microplate reader (Tecan, Männedorf, Switzerland).
(§2) The combination index (CI) method of Chou-Talalay, based on the median-effect equation, was used to calculate combined drug effects. This approach offers quantitative definitions for additive, synergistic and antagonistic effects (CI values of 0.9–1.1, <0.9, and >1.1, respectively). Combination experiments were performed in a constant-ratio experimental design as recommended for the most efficient data analysis, and the generated data were used to quantify dose-reduction indices (DRI) for pairs of the tested drugs. DRI represents the fold-change of a focal effect when individual agents are used simultaneously relative to their separate effects, and their activity is synergistic if DRI > 1. […] The data acquired from these drug combination experiments were analyzed using CompuSyn ver. 3.0.1 software (ComboSyn Inc., Paramus, NJ, USA).

[2] = test system: MDCKII parent cells; type: cell-based; details: 72 h
Protocol: as §1, §2

[3] = test system: HepG2 cells; type: cell-based, human; details: HepG2, 72 h
Protocol: as §1, §2

[4] = DNR combined with Olomoucine II, ratio 1∶6.3
[5] = DNR combined with Purvalanol A, ratio 1∶17.7
[6] = DNR combined with Roscovitine, ratio 1∶17.0
[7] = DNR combined with Olomoucine II, ratio 1∶9.2
[8] = DNR combined with Purvalanol A, ratio 1∶11.7
[9] = DNR combined with Roscovitine, ratio 1∶12.3
[10] = DNR combined with Olomoucine II, ratio 1∶20.5
[11] = DNR combined with Roscovitine, ratio 1∶47.0

COc1cccc2c1C(=O)c1c(O)c3c(c(O)c1C2=O)C[C@@](O)(C(C)=O)C[C@@H]3O[C@H]1C[C@H](N)[C@H](O)[C@H](C)O1 [DNR, daunorubicin] was tested, and the “DRI at Fa 0.5, drug I (DNR)” value [1, 4] was 3.11±0.13, the “DRI at Fa 0.75, drug I (DNR)” value [1, 4] was 4.14 ±0.08 and the “DRI at Fa 0.9, drug I (DNR)” value [1, 4] was 5.45±0.02. The “DRI at Fa 0.75, drug I (DNR)” value [1, 5] was 3.12±0.03, the “DRI at Fa 0.9, drug I (DNR)” value [1, 5] was 4.36±0.13 and the “DRI at Fa 0.5, drug I (DNR)” value [1, 6] was 2.63±0.02. The “DRI at Fa 0.75, drug I (DNR)” value [1, 6] was 3.96±0.05, the “DRI at Fa 0.9, drug I (DNR)” value [1, 6] was 5.96±0.17 and the “DRI at Fa 0.5, drug I (DNR)” value [2, 7] was 2.38±0.08. The “DRI at Fa 0.75, drug I (DNR)” value [2, 7] was 3.07±0.06, the “DRI at Fa 0.9, drug I (DNR)” value [2, 7] was 3.96±0.03 and the “DRI at Fa 0.5, drug I (DNR)” value [2, 8] was 2.25±0.03. The “DRI at Fa 0.75, drug I (DNR)” value [2, 8] was 2.84±0.05, the “DRI at Fa 0.9, drug I (DNR)” value [2, 8] was 3.60±0.09 and the “DRI at Fa 0.75, drug I (DNR)” value [2, 9] was 2.74±0.06. For the same molecule, the “DRI at Fa 0.9, drug I (DNR)” value [2, 9] was 3.57±0.09, the “DRI at Fa 0.75, drug I (DNR)” value [3, 10] was 2.55±0.03 and the “DRI at Fa 0.9, drug I (DNR)” value [3, 10] was 4.68±0.09. For the same molecule, the “DRI at Fa 0.9, drug I (DNR)” value ([3]; DNR combined with Purvalanol A, ratio 1∶43.0) was 4.05±0.08, the “DRI at Fa 0.75, drug I (DNR)” value [3, 11] was 2.72±0.02 and the “DRI at Fa 0.9, drug I (DNR)” value [3, 11] was 5.02±0.03.

From publication PMC3871618 (PLoS ONE, 2013)
